Here are results for 14 molecules from patent US9452980B2, “Substituted benzamides” (Hoffmann-La Roche Inc., priority 2009, dated 2016).

The structures appear in SMILES notation. Structures can show the parent of a compound that is named as a salt. Where two headings read alike, the source gives them in different places.

By Ki is commonly meant a measure of affinity in units of concentration, obtained from inhibition or displacement.

The target in one assay is mouse TAAR1 (Mus musculus (Mouse), UniProt Q923Y8). Nature of the assay: Radioligand binding assay on mouse TAAR1. Particulars: read-out: Ki (μM) mouse. Put shortly: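 Displacement of the tritiated oxazol-2-ylamine radioligand was measured by filtration and scintillation counting after 1 h incubation at 4 °C. Test concentrations ran 10 pM–10 μM in duplicate, with 10 μM cold ligand giving nonspecific binding. The receptor source was membranes of a stable mouse TAAR1 HEK293 line.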

The next assay deals with rat TAAR1 (Rattus norvegicus (Rat), UniProt Q923Y9). Nature of the assay: Radioligand binding assay on rat TAAR1. To be noted: read-out: Ki (μM) rat. The gist of the method: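 Membranes from HEK293 cells stably expressing rat TAAR1, with Kd checked per batch by saturation. Competition with ³H-(S)-4-[(ethyl-phenyl-amino)-methyl]-4,5-dihydro-oxazol-2-ylamine, compounds 10 pM–10 μM in duplicate, 1 hr at 4 °C. Filtration then scintillation counting; nonspecific binding defined with 10 μM unlabeled ligand.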

[1] abbreviates: mouse TAAR1, HEK-293 membranes, first value of cell mouse/rat.
Setting [2] is: rat TAAR1, HEK-293 membranes, second value of cell mouse/rat.

Sequence of mouse TAAR1 (Q923Y8 whole entry): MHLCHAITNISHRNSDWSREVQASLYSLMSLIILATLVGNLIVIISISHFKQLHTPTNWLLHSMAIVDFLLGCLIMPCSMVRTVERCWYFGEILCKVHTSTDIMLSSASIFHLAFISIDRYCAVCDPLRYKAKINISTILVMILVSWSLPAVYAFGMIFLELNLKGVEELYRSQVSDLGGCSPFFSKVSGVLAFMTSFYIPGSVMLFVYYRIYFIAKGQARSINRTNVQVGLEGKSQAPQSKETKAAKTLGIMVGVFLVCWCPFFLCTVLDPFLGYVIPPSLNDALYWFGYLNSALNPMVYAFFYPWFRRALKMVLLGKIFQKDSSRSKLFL
Sequence of rat TAAR1 (Q923Y9 whole entry): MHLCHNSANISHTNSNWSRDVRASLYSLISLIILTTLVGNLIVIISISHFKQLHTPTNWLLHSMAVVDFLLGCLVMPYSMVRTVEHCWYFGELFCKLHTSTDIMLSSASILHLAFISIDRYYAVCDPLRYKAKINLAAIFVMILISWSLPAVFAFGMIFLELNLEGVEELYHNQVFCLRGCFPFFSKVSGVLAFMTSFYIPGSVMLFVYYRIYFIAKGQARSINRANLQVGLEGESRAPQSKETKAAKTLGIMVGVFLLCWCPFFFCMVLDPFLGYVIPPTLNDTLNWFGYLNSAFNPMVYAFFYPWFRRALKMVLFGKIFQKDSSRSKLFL

For `O=C(Nc1ccc(C2CCNC2)cc1)c1ncc(F)cc1F` (racemic) [Example 75, (RS)-3,5-Difluoro-pyridine-2-carboxylic acid (4-pyrrolidin-3-yl-phenyl)-amide hydrochloride], the figures for the Ki on mouse TAAR1 (setting [1]) and at rat TAAR1 (setting [2]) were 0.0255 µM and 1.48 µM, respectively.

As to `O=C(Nc1ccc(C2CCCNC2)cc1)c1ncc(F)cc1F` (racemic) [Example 106, (RS)-3,5-Difluoro-pyridine-2-carboxylic acid (4-piperidin-3-yl-phenyl)-amide hydrochloride], the inhibition constant (Ki) on mouse TAAR1 (setting [1]) was 0.0248 µM; on rat TAAR1 (setting [2]), 1.43 µM.

With `O=C(Nc1ccc([C@@H]2CNCCO2)cc1)c1cccc(Cl)c1` [Example 262, (R)-3-Chloro-N-(4-(morpholin-2-yl)phenyl)benzamide hydrochloride], the Ki at mouse TAAR1 was 0.0052 µM; at rat TAAR1 it was 0.0013 µM.

Consider `O=C(Nc1ccc(C2CCNC2)cc1)OCCc1cccc(Cl)c1` (racemic) [Example 121, (RS)-(4-Pyrrolidin-3-yl-phenyl)-carbamic acid 2-(3-chloro-phenyl)-ethyl ester], for which the Ki worked out at 0.0005 µM on mouse TAAR1 (setting [1]) and 0.0004 µM on rat TAAR1 (setting [2]).

Consider `CCOc1ccc(C(=O)Nc2ccc(C3CNCCO3)cc2)cc1` (racemic) [Example 197, (RS)-4-Ethoxy-N-(4-(morpholin-2-yl)phenyl)benzamide hydrochloride], for which the figures for the inhibition constant Ki at mouse TAAR1 (setting [1]) and on rat TAAR1 were 0.0177 µM and 0.0016 µM, respectively.

For the molecule `O=C(Nc1ccc(OC2CCNC2)cc1)c1ccc(Cl)cc1` (racemic) [Example 39, (RS)-4-Chloro-N-[4-(pyrrolidin-3-yloxy)-phenyl]-benzamide hydrochloride], the inhibition constant (Ki) stood at 0.0007 µM at mouse TAAR1 (setting [1]) and 0.0139 µM on rat TAAR1 (setting [2]).

For `C[C@@H]1CO[C@@H](c2ccc(NC(=O)c3cccc(Cl)c3)cc2)CN1` [Example 323, 3-Chloro-N-[4-((2S,5R)-5-methyl-morpholin-2-yl)-phenyl]-benzamide hydrochloride], the inhibitory constant (Ki) on mouse TAAR1 is 0.0592 µM; on rat TAAR1, 0.0013 µM.

Turning to `O=C(Nc1ccc([C@@H]2CCCNC2)cc1)c1cccc(Cl)c1` [Example 153, (S)-3-Chloro-N-(4-(piperidin-3-yl)phenyl)benzamide hydrochloride], the results for the Ki on mouse TAAR1 and on rat TAAR1 (setting [2]) were 0.0715 µM and 0.0005 µM, respectively.

Turning to `O=C(Nc1ccc(C2CCNC2)cc1)OCCc1ccc(Cl)c(Cl)c1` (racemic) [Example 126, (RS)-(4-Pyrrolidin-3-yl-phenyl)-carbamic acid 2-(3,4-dichloro-phenyl)-ethyl ester], the figures for the Ki at mouse TAAR1 (setting [1]) and on rat TAAR1 (setting [2]) were 0.0019 µM and 0.0022 µM, respectively.

As to `CC(C(=O)Nc1ccc(C2CCNC2)cc1)c1cccc(C(F)(F)F)c1` (racemic) [Example 61, (RS)—N—((RS)-4-Pyrrolidin-3-yl-phenyl)-2-(3-trifluoromethyl-phenyl)-propionamide], the Ki is 0.0172 µM on mouse TAAR1 (setting [1]) and 0.0033 µM at rat TAAR1 (setting [2]).

In the case of `O=C(Nc1ccc(C2CNCCO2)cc1)c1coc(-c2ccccc2)n1` (racemic) [Example 249, (RS)—N-(4-(Morpholin-2-yl)phenyl)-2-phenyloxazole-4-carboxamide hydrochloride], the inhibition constant Ki at mouse TAAR1 (setting [1]) is 0.0025 µM; on rat TAAR1 (setting [2]), 0.0024 µM.

Take `O=C(Nc1ccc(C2CCNC2)cc1)Nc1cccc(Cl)c1` (racemic) [Example 8, (RS)-1-(3-Chloro-phenyl)-3-(4-pyrrolidin-3-yl-phenyl)-urea hydrochloride]: the values for the inhibitory constant (Ki) on mouse TAAR1 (setting [1]) and on rat TAAR1 (setting [2]) were 0.0015 µM and 0.0044 µM, respectively.

In the case of `COC(=O)c1ccc(Oc2ccc(C(=O)Nc3ccc(C4CNCCO4)cc3)cc2)cc1Cl` (racemic) [Example 213, (RS)-Methyl 2-chloro-4-(4-(4-(morpholin-2-yl)phenylcarbamoyl)phenoxy)benzoate hydrochloride], the inhibitory constant (Ki) at mouse TAAR1 (setting [1]) was 0.0012 µM; at rat TAAR1 (setting [2]), 0.001 µM.

Regarding `CCOc1ccc(C(=O)Nc2ccc(C3CCNC3)cc2)cc1` (racemic) [Example 52, (RS)-4-Ethoxy-N-(4-pyrrolidin-3-yl-phenyl)-benzamide hydrochloride], the Ki was determined as 0.0017 µM at mouse TAAR1 (setting [1]) and 0.0109 µM on rat TAAR1 (setting [2]).
